Data taken from paper PMC4212090, “The comprehensive analysis of DEG/ENaC subunits in Hydra reveals a large variety of peptide-gated channels, potentially involved in neuromuscular transmission” (BMC Biology, 2014).
Read-outs that look alike come from different tables or passages of the source.

Assays:
[1] = biological target: T1, HyNaC2/9/7 (Hydra vulgaris (Hydra magnipapillata), UniProt A0A0A0MP48+A0A0A0MP73+A8DZR6); assay: Activation of HyNaC2/9/7 expressed in Xenopus oocytes by Hydra-RFamides (TEVC); format: cell-based; settings: EGTA-injected oocytes
T1 sequence (A0A0A0MP48 entry or part of it): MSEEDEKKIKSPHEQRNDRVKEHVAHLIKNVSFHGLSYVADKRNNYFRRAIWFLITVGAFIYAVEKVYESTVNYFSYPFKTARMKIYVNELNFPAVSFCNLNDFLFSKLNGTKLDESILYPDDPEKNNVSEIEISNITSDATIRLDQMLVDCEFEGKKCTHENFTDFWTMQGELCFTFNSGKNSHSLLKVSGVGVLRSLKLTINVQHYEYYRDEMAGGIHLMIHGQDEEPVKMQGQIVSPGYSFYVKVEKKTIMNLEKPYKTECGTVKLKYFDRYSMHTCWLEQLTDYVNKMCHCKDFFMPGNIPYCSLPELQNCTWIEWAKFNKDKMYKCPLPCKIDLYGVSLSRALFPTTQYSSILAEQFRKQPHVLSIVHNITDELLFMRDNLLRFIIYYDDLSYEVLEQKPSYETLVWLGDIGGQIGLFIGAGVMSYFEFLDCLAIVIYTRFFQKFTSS
T1 sequence (A8DZR6 entry or part of it): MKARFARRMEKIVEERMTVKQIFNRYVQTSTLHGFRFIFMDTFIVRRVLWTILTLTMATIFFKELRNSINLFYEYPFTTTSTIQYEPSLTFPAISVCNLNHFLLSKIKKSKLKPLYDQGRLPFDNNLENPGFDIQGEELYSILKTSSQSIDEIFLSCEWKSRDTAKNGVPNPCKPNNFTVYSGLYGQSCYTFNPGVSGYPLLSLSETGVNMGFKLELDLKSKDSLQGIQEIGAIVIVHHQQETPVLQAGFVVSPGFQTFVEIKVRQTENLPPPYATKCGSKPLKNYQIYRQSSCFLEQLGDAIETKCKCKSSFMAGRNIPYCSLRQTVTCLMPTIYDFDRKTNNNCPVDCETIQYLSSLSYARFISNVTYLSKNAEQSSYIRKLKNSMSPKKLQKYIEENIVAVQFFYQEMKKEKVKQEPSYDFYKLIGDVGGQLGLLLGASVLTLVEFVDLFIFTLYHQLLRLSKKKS
T1 sequence (A0A0A0MP73 entry or part of it): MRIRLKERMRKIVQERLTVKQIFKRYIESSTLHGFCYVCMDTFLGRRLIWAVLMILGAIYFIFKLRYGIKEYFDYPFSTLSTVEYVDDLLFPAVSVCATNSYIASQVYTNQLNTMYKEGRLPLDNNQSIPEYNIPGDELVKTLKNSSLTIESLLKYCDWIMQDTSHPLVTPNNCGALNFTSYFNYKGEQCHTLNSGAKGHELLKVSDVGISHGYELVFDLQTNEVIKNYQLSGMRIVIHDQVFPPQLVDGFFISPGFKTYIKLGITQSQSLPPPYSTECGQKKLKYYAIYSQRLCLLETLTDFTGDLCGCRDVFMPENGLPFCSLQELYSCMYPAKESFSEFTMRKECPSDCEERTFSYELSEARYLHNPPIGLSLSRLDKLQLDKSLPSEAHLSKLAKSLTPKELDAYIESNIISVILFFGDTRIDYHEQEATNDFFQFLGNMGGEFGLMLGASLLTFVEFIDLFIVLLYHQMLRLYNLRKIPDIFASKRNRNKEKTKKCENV
Experimental: (§1) To study the biophysical properties of the new HyNaCs, cRNA of HyNaCs was synthesized in vitro (mMessage mMachine kit, Ambion, Austin, Texas, USA) and injected into Xenopus laevis oocytes of stage V and VI. After injection, oocytes were incubated for one to two days at 19°C in oocyte Ringer’s solution 2 (OR-2), which contained (in mM): 82.5 NaCl, 2.5 KCl, 1.0 Na2HPO4, 1.0 MgCl2, 1.0 CaCl2, 5.0 HEPES, 0.5 g/l PVP, 1,000 U/l penicillin and 10 mg/l streptomycin, NaOH was used to adjust pH to 7.3. Whole cell currents were recorded from defolliculated oocytes by two-electrode voltage-clamp (TEVC) using the amplifier TurboTec 03X (npi electronic GmbH, Tamm, Germany). Standard bath solution (in mM: 140 NaCl, 10 HEPES, 1.8 CaCl2 and 1.0 MgCl2. NaOH was used to adjust pH to 7.4.) was exchanged by a pump driven system combined with the oocyte testing carousel (OTC), which was controlled by the interface OTC-20 [53]. To control the OTC-20 and to record the data to the hard drive, the software CellWorks (version 5.1.1; npi electronic GmbH, Tamm, Germany) was used. Data were sampled at 0.1 to 1 kHz and filtered at 20 Hz. HyNaCs are permeable for Ca^2+, activating an endogenous CaCC [40]. Therefore, unless otherwise indicated, oocytes were injected with 50 nl of 20 mM EGTA 30 to 180 minutes before measurements. Reversal potentials and Ca^2+ permeabilities of HyNaCs were studied as described previously.
(§2) EC50 values for Hydra-RFamides I and II as well as IC50 values for diminazene were determined by fits to the Hill equation using IGOR Pro (version 6.06, WaveMetrics, Inc.). Reversal potentials were defined as the first recorded data point, where currents reversed signs from negative to positive. For I/V relationships, voltage ramps in the absence of the agonist were used to subtract background conductances. Results are reported as mean ± standard error.

[2] = biological target: T2, HyNaC2/4/6 (Hydra vulgaris (Hydra magnipapillata), UniProt A0A0A0MP54+A8DZR6+A8DZR8); assay: Activation of HyNaC2/4/6 expressed in Xenopus oocytes by Hydra-RFamides (TEVC); format: cell-based; settings: EGTA-injected oocytes
T2 sequence (A8DZR8 entry or part of it): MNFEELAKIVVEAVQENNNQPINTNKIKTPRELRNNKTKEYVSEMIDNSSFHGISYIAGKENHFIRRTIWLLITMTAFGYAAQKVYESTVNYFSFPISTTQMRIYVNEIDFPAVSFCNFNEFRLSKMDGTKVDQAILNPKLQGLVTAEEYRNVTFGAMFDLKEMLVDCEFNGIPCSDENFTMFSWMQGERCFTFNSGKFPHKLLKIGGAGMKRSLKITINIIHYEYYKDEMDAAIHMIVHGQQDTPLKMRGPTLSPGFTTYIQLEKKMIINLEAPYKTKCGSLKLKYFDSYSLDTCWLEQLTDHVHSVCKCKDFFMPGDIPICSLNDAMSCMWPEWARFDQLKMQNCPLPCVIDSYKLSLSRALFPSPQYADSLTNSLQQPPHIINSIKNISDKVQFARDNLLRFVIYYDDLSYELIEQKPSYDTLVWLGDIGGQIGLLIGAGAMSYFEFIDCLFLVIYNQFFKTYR
T2 sequence (A0A0A0MP54 entry or part of it): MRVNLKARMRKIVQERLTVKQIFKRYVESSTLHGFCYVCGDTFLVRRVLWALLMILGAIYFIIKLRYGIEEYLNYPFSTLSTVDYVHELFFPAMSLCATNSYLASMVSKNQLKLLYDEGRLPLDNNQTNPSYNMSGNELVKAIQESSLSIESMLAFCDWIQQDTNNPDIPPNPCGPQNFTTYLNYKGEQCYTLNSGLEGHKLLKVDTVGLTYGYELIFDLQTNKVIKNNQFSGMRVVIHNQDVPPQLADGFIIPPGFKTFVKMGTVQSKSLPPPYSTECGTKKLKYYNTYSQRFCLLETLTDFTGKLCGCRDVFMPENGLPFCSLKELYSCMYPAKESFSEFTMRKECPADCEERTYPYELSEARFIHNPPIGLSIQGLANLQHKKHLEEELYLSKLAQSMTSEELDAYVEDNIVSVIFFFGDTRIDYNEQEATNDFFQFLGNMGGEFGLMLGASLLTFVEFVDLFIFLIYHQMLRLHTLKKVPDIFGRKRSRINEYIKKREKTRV
T2 sequence (A8DZR6 entry or part of it): as the sequence (A8DZR6 entry or part of it) above
Experimental: as §1, §2

[3] = biological target: T3, HyNaC2/10/7 (Hydra vulgaris (Hydra magnipapillata), UniProt A0A0A0MP61+A0A0A0MP73+A8DZR6); assay: Activation of HyNaC2/10/7 expressed in Xenopus oocytes by Hydra-RFamides (TEVC); format: cell-based; settings: EGTA-injected oocytes
T3 sequence (A0A0A0MP61 entry or part of it): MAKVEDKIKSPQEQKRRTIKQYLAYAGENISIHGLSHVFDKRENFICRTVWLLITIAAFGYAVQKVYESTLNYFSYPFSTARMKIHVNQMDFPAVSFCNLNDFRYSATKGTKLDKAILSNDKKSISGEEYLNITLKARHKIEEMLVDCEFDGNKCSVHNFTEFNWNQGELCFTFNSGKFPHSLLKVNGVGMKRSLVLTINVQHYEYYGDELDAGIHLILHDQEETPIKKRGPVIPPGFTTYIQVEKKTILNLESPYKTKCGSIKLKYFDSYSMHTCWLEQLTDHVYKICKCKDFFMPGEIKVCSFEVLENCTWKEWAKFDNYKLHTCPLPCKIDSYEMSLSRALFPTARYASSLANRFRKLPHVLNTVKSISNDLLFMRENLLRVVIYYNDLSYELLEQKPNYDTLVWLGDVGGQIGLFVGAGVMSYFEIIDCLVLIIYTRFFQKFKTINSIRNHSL
T3 sequence (A0A0A0MP73 entry or part of it): as the sequence (A0A0A0MP73 entry or part of it) above
T3 sequence (A8DZR6 entry or part of it): as the sequence (A8DZR6 entry or part of it) above
Experimental: as §1, §2

[4] = test system: HyNaC2/9/5; assay: Activation of HyNaC2/9/5 in Xenopus oocytes by Hydra-RFamides; format: cell-based, Hydra magnipapillata; settings: channel opened by lowering extracellular Ca2+
Experimental: The contribution of the distantly related HyNaC12 to peptide-gated channels was assessed by co-expression with HyNaC2 and one or several other HyNaCs (HyNaC3 to HyNaC11). In addition, HyNaC12 was co-expressed with pools of different HyNaCs without HyNaC2. […] In fact, all HyNaCs that were activated by Hydra-RFamide I were opened by lowering the extracellular Ca^2+ concentration ([Ca^2+]e) to 10 nM (Figure 4). […] Some DEG/ENaCs are constitutively opened by an amino acid substitution at the so-called DEG-position. To further investigate whether HyNaC12 forms a functional homomeric channel, we substituted a glycine at the DEG-position by threonine (G436T), which has a large side chain. This substitution did, however, not constitutively open HyNaC12 (data not shown). This applies also for the co-expression of HyNaC12-G436T together with pools of different wild-type HyNaC subunits, leaving the function of HyNaC12 unknown.
(§3) To study the biophysical properties of the new HyNaCs, cRNA of HyNaCs was synthesized in vitro (mMessage mMachine kit, Ambion, Austin, Texas, USA) and injected into Xenopus laevis oocytes of stage V and VI. […] Whole cell currents were recorded from defolliculated oocytes by two-electrode voltage-clamp (TEVC) using the amplifier TurboTec 03X (npi electronic GmbH, Tamm, Germany). […]

[5] = biological target: T4, HyNaC2/3/6 (Hydra vulgaris (Hydra magnipapillata), UniProt A0A0A0MP54+A8DZR6+A8DZR7); assay: Activation of HyNaC2/3/6 expressed in Xenopus oocytes by Hydra-RFamides (TEVC); format: cell-based; settings: EGTA-injected oocytes
T4 sequence (A0A0A0MP54 entry or part of it): as the sequence (A0A0A0MP54 entry or part of it) above
T4 sequence (A8DZR7 entry or part of it): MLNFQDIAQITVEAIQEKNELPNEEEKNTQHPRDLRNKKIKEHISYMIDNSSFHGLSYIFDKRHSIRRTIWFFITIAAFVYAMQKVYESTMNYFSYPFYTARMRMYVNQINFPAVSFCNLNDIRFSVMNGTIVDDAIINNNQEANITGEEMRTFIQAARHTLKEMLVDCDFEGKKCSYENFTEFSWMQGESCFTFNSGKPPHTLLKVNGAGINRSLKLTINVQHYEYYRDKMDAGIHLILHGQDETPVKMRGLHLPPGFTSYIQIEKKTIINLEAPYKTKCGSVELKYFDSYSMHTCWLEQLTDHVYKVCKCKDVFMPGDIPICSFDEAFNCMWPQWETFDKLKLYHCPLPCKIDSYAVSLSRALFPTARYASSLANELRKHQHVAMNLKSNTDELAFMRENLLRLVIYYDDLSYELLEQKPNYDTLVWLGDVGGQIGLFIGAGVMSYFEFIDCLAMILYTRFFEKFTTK
T4 sequence (A8DZR6 entry or part of it): as the sequence (A8DZR6 entry or part of it) above
Experimental: as §1, §2

[6] = test system: functional HyNaC heterotrimer; assay: Screen of functional HyNaC heterotrimers in Xenopus oocytes for activation by Hydra-RFamides; format: cell-based, Hydra magnipapillata
Experimental: We tested the function of the new HyNaCs by co-expression of different HyNaC subunit combinations in Xenopus oocytes. We screened for functional subunit combinations by application of 5 μM Hydra-RFamide I, a potent agonist of HyNaC2/3/5 [4]. When we expressed an individual HyNaC subunit we could never elicit currents. […] When HyNaC2 was part of the injected cRNA pool, however, Hydra-RFamide I elicited currents. Simultaneous expression of HyNaC2 with a single other HyNaC resulted only in a functional channel when we co-expressed HyNaC2 and HyNaC3; it was already known that HyNaC2 and HyNaC3 form a low-affinity peptide-gated channel.
Dashed line represents the zero current level. Amino acid sequences of Hydra-RFamides I to V are shown at the bottom. HyNaC, Hydra Na^+ channel.
Since Hydra-RFamide II had been shown previously to activate HyNaC2/3/5 [4], we tested Hydra-RFamides II to V for channel activation.
as §1

[7] = biological target: T5, HyNaC2/11/5 (Hydra vulgaris (Hydra magnipapillata), UniProt A0A0A0MP55+A8DZR6+D3UD58); assay: Activation of HyNaC2/11/5 expressed in Xenopus oocytes by Hydra-RFamides (TEVC); format: cell-based
T5 sequence (A0A0A0MP55 entry or part of it): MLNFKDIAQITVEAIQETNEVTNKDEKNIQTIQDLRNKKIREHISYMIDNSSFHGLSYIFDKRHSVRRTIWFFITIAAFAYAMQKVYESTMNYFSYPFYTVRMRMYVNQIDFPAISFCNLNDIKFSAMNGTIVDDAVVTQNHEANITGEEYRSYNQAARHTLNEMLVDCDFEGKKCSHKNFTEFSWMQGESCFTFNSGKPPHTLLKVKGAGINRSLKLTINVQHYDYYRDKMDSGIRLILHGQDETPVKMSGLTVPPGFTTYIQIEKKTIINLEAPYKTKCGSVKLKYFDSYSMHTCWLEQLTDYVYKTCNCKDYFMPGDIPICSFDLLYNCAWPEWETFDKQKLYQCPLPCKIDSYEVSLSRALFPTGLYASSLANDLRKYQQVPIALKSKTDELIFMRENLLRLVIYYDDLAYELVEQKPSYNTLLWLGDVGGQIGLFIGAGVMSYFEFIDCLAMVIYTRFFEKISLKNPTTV
T5 sequence (A8DZR6 entry or part of it): as the sequence (A8DZR6 entry or part of it) above
T5 sequence (D3UD58 entry or part of it): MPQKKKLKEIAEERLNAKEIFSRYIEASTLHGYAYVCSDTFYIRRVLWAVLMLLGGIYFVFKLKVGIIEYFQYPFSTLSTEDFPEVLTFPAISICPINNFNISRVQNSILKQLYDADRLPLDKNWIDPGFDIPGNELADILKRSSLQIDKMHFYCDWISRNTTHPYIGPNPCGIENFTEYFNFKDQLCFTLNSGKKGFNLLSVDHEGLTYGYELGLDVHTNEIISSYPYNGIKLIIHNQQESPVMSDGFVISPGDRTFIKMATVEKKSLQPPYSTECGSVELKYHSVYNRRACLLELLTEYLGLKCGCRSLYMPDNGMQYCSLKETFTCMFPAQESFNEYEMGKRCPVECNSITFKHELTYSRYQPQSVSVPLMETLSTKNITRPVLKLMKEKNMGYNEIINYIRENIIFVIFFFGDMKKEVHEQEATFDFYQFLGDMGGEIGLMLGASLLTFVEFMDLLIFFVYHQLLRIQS
Experimental: as §1, §2

[8] = biological target: T6, HyNaC2/3/7 (Hydra vulgaris (Hydra magnipapillata), UniProt A0A0A0MP73+A8DZR6+A8DZR7); assay: Activation of HyNaC2/3/7 expressed in Xenopus oocytes by Hydra-RFamides (TEVC); format: cell-based; settings: EGTA-injected oocytes
T6 sequence (A8DZR7 entry or part of it): as the sequence (A8DZR7 entry or part of it) above
T6 sequence (A0A0A0MP73 entry or part of it): as the sequence (A0A0A0MP73 entry or part of it) above
T6 sequence (A8DZR6 entry or part of it): as the sequence (A8DZR6 entry or part of it) above
Experimental: as §1, §2

[9] = biological target: T7, HyNaC2/3/5 (Hydra vulgaris (Hydra magnipapillata), UniProt A8DZR6+A8DZR7+D3UD58); assay: Activation of HyNaC2/3/5 expressed in Xenopus oocytes by Hydra-RFamides (TEVC); format: cell-based; settings: EGTA-injected oocytes
T7 sequence (A8DZR6 entry or part of it): as above
T7 sequence (D3UD58 entry or part of it): as the sequence (D3UD58 entry or part of it) above
T7 sequence (A8DZR7 entry or part of it): as the sequence (A8DZR7 entry or part of it) above
Experimental: as §1, §2

[10] = biological target: T7, HyNaC2/3/5; set-up: method as in PMID 20159980; settings: ref [4], cited from earlier work
[11] = test system: Hydra magnipapillata; assay: Feeding reaction (tentacle curling induced by glutathione) of living Hydra; format: in vivo; settings: 10 μM GSH
Experimental: To find further evidence that amiloride inhibited the feeding reaction via inhibition of HyNaCs, we repeated these experiments with diminazene. Addition of glutathione (GSH; 10 μM final concentration) induced tentacle contractions and animals moved the tentacles to their mouth. After about two minutes, 100% of animals had their tentacles completely curled. […] Although the potency of diminazene in vivo was low, it should be taken into account that septate junctions provide a significant paracellular permeability barrier to the mesogleal space of Hydra. Moreover, it appears that diminazene requires active transport mechanisms for cellular uptake, probably strongly limiting its transcellular transport; amiloride in contrast is, in part, uncharged at neutral pH and has a significant membrane permeability.
Figure 11 Diminazene inhibits the feeding reaction of Hydra magnipapillata . Adult animals were held in plain medium or in medium containing 100, 200 or 300 μM diminazene (Dimi). The feeding response was induced by application of 10 μM glutathione (GSH). The number of animals showing complete tentacle curling was recorded every 30 seconds. *, P <0.05; **, P <0.01; ***, P <0.001.

[12] = biological target: T3, HyNaC2/10/7; assay: Inhibition of HyNaC2/10/7 currents in Xenopus oocytes (TEVC); format: cell-based; settings: HyNaC2/10/7
Experimental: (§4) One of the hallmarks of DEG/ENaCs is the block by the diuretic amiloride.
(§5) Figure 10 Diminazene is a potent inhibitor of HyNaCs. A) Current trace illustrating the concentration-dependent inhibition of HyNaC2/9/7 by diminazene. Block by 100 μM amiloride was used to compare the affinity for diminazene and amiloride. […] Dashed lines represent the zero current level. B) Concentration-response curves showing the concentration-dependent inhibition of HyNaCs by diminazene. HyNaCs, Hydra Na^+ channels.
as §3
(§6) EC50 values for Hydra-RFamides I and II as well as IC50 values for diminazene were determined by fits to the Hill equation using IGOR Pro (version 6.06, WaveMetrics, Inc.). Reversal potentials were defined as the first recorded data point, where currents reversed signs from negative to positive. […]

[13] = biological target: T5, HyNaC2/11/5; assay: Inhibition of HyNaC2/11/5 currents in Xenopus oocytes (TEVC); format: cell-based; settings: HyNaC2/11/5
Experimental: as §4, §5, §3, §6

[14] = biological target: T7, HyNaC2/3/5; assay: Inhibition of HyNaC2/3/5 currents in Xenopus oocytes (TEVC); format: cell-based; settings: HyNaC2/3/5
Experimental: as §4, §5, §3, §6

[15] = biological target: T4, HyNaC2/3/6; assay: Inhibition of HyNaC2/3/6 currents in Xenopus oocytes (TEVC); format: cell-based; settings: HyNaC2/3/6
Experimental: as §4, §5, §3, §6

[16] = biological target: T1, HyNaC2/9/7; assay: Inhibition of HyNaC2/9/7 currents in Xenopus oocytes (TEVC); format: cell-based; settings: HyNaC2/9/7
Experimental: as §4, §5, §3, §6

[17] = test system: HyNaCs; assay: Block of HyNaC currents (HyNaCs in general) in Xenopus oocytes; format: cell-based, Hydra magnipapillata; settings: most HyNaCs
Experimental: as §4, §5
To study the biophysical properties of the new HyNaCs, cRNA of HyNaCs was synthesized in vitro (mMessage mMachine kit, Ambion, Austin, Texas, USA) and injected into Xenopus laevis oocytes of stage V and VI. After injection, oocytes were incubated for one to two days at 19°C in oocyte Ringer’s solution 2 (OR-2), which contained (in mM): 82.5 NaCl, 2.5 KCl, 1.0 Na2HPO4, 1.0 MgCl2, 1.0 CaCl2, 5.0 HEPES, 0.5 g/l PVP, 1,000 U/l penicillin and 10 mg/l streptomycin, NaOH was used to adjust pH to 7.3. Whole cell currents were recorded from defolliculated oocytes by two-electrode voltage-clamp (TEVC) using the amplifier TurboTec 03X (npi electronic GmbH, Tamm, Germany). […]

[18] = biological target: T6, HyNaC2/3/7; assay: Inhibition of HyNaC2/3/7 currents in Xenopus oocytes (TEVC); format: cell-based; settings: HyNaC2/3/7
Experimental: as §4, §5, §3, §6

[19] = biological target: T2, HyNaC2/4/6; assay: Inhibition of HyNaC2/4/6 currents in Xenopus oocytes (TEVC); format: cell-based; settings: HyNaC2/4/6
Experimental: as §4, §5, §3, §6

In the case of Hydra-RFamide II, the “current amplitude at highest agonist concentration (Hydra-RFamide II)” value (“current amplitude” for short) [1] is reported as 3.6 ± 1.3 μA, the EC50 ([1]; read-out: EC50 for Hydra-RFamide II) is reported as 40 ± 10 nM and the “current amplitude” value [2] is reported as 4.7 ± 0.8 μA. The “current amplitude” value [3] was 1.1 ± 0.4 μA, the “activation of HyNaC2/9/5” value [4] was “not activated” and the “current amplitude” value [5] was 9.2 ± 1.7 μA. For the same molecule, the “activation of channels that were activated by Hydra-RFamide I” value ([6]; data not shown) was “also activated”, the “apparent affinity for Hydra-RFamide II relative to Hydra-RFamide I” value ([7]; 0.95 μM compared with 13.8 μM) was “about 15 fold” and the “current amplitude” value ([7]; EGTA-injected oocytes) was 2.2 ± 0.4 μA. For the same molecule, the EC50 ([7]; EGTA-injected oocytes, read-out: EC50 for Hydra-RFamide II) was 950 ± 160 nM, the “current amplitude” value [8] was 11.8 ± 4.0 μA and the “current amplitude” value [9] was 5.3 ± 1.0 μA. The EC50 ([9]; read-out: EC50 (apparent affinity) for Hydra-RFamide II) was 1610 ± 270 nM, the EC50 ([10]; oocytes not injected with EGTA, read-out: EC50 (apparent affinity) for Hydra-RFamide II) was 340 ± 80 nM and the “apparent affinity for Hydra-RFamide II relative to Hydra-RFamide I” value [10] was “ten times higher”.
With `N=C(N)c1ccc(/N=N/Nc2ccc(C(=N)N)cc2)cc1` [diminazene] the “tentacle curling (feeding reaction)” value ([11]; 100 μM diminazene in medium) was “slightly delayed”, the “initiation of tentacles movement (feeding reaction)” value ([11]; 200 μM diminazene in medium) was “more strongly and significantly (P ≤0.01) delayed” and the feeding reaction ([11]; 300 μM diminazene in medium) was “strongly inhibited the feeding reaction”. For the same molecule, the “animals with tentacles completely curled” value ([11]; 300 μM diminazene in medium, after four minutes) was 20%, the IC50 [12] was 5400 ± 1450 nM and the IC50 [13] was 31400 ± 9400 nM. It also gave an IC50 [14] of 450 ± 90 nM, an IC50 [15] of 90 ± 20 nM and an IC50 [16] of 1700 ± 580 nM. The “block of HyNaC currents” value ([17]; 10 μM diminazene) was “almost completely blocked”, the “potency relative to amiloride” value ([17]; estimated) was > 100 fold and the IC50 [18] was 160 ± 80 nM. It also gave an IC50 [19] of 50 ± 20 nM.
For Hydra-RFamide III, the “activation of functional HyNaC heterotrimers (current elicited)” value ([6]; 5 μM peptide, Xenopus oocytes) was “did not elicit a current”.
